Where two headings read alike, the source gives them in different places. Each block holds one compound with its values, some of them ahead of it.
Assays:
human TNF-α = test: TNF-α assay: suppression of TNF-α production by LPS-stimulated PBMC (ELISA); assay type: cell-based; conditions: LPS 1 μg/ml, 72 hours
Procedure: (§1) Peripheral blood mononuclear cells (herein referred as PBMC), in response to stimulation by lipopolysaccharide (LPS), a gram-negative bacterial endotoxin, produce various […], in particular human TNF-α and IL-1 β. Inhibition of the activation of PBMC can therefore be measured by the level of suppression of the production of TNF-α or IL-1 β by PBMC in response to stimulation by LPS.
(§2) Such inhibition measurement was performed as follows: PBMC were isolated from heparinized peripheral blood by density gradient centrifugation over Lymphoprep (commercially available from Nycomed, Norway). LPS was then added to the PMBC suspension in complete medium (10^6 cells/ml) at a final concentration of 1 μg/ml. The pteridine derivative to be tested was added at different concentrations (0.1 μM, 1 μM and 10 μM) and the cells were incubated at 37° C. for 72 hours in 5% CO2. The supernatants were collected, then TNF-α and/or IL-1 β concentrations were measured with respectively an anti-TNF-α antibody or an anti-IL-1 β antibody in a sandwich ELISA (Duo Set ELISA human TNFα, commercially available from R&D Systems, United Kingdom). The calorimetric reading of the ELISA was measured by a Multiskan RC plate reader (commercially available from ThermoLabsystems, Finland) at 450 nm (reference wavelength: 690 nm). Data analysis was performed with Ascent software 2.6. (also from ThermoLabsystems, Finland): a standard curve (recombinant human TNFα) was drawn and the amount (pg/ml) of each sample on the standard curve was determined.
The % suppression of human TNFα production or human IL-1 β by the pteridine derivatives of the invention (drugs) was calculated using the formula: […]
as §1, with “(hereinafter LPS),” for “(LPS),”, “TNF-α.” for “TNF-α and IL-1 β.”, “TNF-α” for “TNF-α or IL-1 β”
as §2, with “TNF-α” for “TNF-α and/or IL-1 β”, “with” for “with respectively”, “anti-TNF-α” for “anti-TNF-α antibody or an anti-IL-1 β”, “TNF-α,” for “TNFα,”, “colorimetric” for “calorimetric”
The % suppression of human TNFα production by the pteridine derivatives of the invention (drugs) was calculated using the formula: […]

[1] = tested on: Peripheral blood mononuclear cells; test: Mixed lymphocyte reaction (MLR) test; assay type: cell-based, human; conditions: 50% suppression of the MLR
Procedure: (§3) Pteridine derivatives were first dissolved (10 mM) in dimethylsulfoxide (hereinafter referred as DMSO) and further diluted in culture medium before use for the following in vitro experiments. The commercially available culture medium consisted of RPMI-1640+10% foetal calf serum (FCS). Some pteridine derivatives described the previous examples were tested in the following lymphocyte activation tests:
(§4) Peripheral blood mononuclear cells (hereinafter referred as PBMC) were isolated from heparinized peripheral blood by density gradient centrifugation over Lymphoprep (Nycomed, Maorstua, Norway). Allogeneic PBMC or Eppstein-Barr Virus-transformed human B cells [commercially available under the trade name RPMI1788 (ATCC name CCL156)] which strongly express B7-1 and B7-2 antigens were used as stimulator cells after irradiation with 30 Gy. MLR was performed in triplicate wells. After 5 days incubation at 37° C., 1 μCi [^3H]-thymidine was added to each cup. After a further 16 hours incubation, cells were harvested and counted in a β-counter. Inhibition of proliferation by a compound (drug) described in some of the previous examples was counted using the formula:
(§5) [formula] wherein cpm is the thymidine count per minute. The MLR assay is regarded by those skilled in the art as an in vitro analogue of the transplant rejection since it is based on the recognition of allogeneic major histocompatibility antigens on the stimulator leukocytes, by responding lymphocytes. Assays for CD3 and CD 28
Pteridine derivatives were first dissolved (10 mM) in dimethylsulfoxide (hereinafter referred as DMSO) and further diluted in culture medium before use for the following in vitro experiments. The commercially available culture medium consisted of RPMI-1640+10% foetal calf serum (FCS). Some pteridine derivatives described in the previous examples (as indicated in table 3 below) were tested in the following mixed lymphocyte reaction (MLR) assay.
as §4, with “CCL156)]which” for “CCL156)] which”
as §5, with “lymphocytes.” for “lymphocytes. Assays for CD3 and CD 28”

[2] = tested on: Highly purified T cells stimulated by anti-CD3 mAb; test: CD3 assay: T-cell proliferation stimulated by immobilized anti-CD3 mAb + PMA (BrdU); assay type: cell-based, human; conditions: 50% reduction in T-cell proliferation, read-out: CD 3 IC50
Procedure: as §3
(§6) T cells were purified by removing non-T cells. Briefly, monocytes were removed by cold agglutination. The resulting lymphoid cells were further purified by a cell enrichment immunocolumn [Cellect Human T commercially available from Biotex, Edmonton, Alberta, Canada)] by a process of negative selection. More than 95% of the B cells were removed with this procedure. After depletion, the resulting T cell preparation was highly purified, i.e. these cells could not be activated by phytohaemagglutinin (PHA) or rIL-2 alone at concentrations capable of stimulating RBMC prior to deletion.
(§7) Highly purified T cells (10^6/ml) were stimulated by immobilized anti-CD3 or anti-CD28 monoclonal antibodies (hereinafter referred as mAb) in the presence of phorbol myristate acetate (hereinafter referred as PMA). Anti-CD3 mAb (available from CLB, Amsterdam, Netherlands) were fixed on a 96-microwell plates by incubating the wells with 50 μl of mAb solution (1/800 dilution in culture medium). For anti-CD28 mAb (available from CLB, Amsterdam, Netherlands) 50 μl (1/650 dilution in culture medium) was added directly to the wells. Further, a 20 μl PMA (commercially available from Sigma, St. Louis, Mo., USA) solution (final concentration: 0.5 ng/ml) was added. Subsequently, 20 μl of a pteridine derivative described in the previous examples were added by serial dilution in triplicate wells. Finally 100 μl of the T-cell suspension (10^6/ml) was added. After 48-hour incubation at 37° C. in 5% CO2, 20 μl of a bromo-deuridine (hereinafter referred as BrdU) 100 μM solution (commercially available as Cell Proliferation Elisa from Boehringer-Mannheim Belgium) was added to each well. After a further overnight incubation, T-cell proliferation was measured using a calorimetric immuno-assay for qualification of cell proliferation based on the incorporation of BrdU during DNA synthesis. Optical density (hereinafter referred as OD) was measured by a Behring EL311 plate reader at 450 nm (reference wavelength: 690 nm). Inhibition of proliferation by the pteridine derivative (drug) was counted while using the formula: […]

[3] = tested on: Highly purified T cells stimulated by anti-CD28 mAb; test: CD28 assay: T-cell proliferation stimulated by anti-CD28 mAb + PMA (BrdU); assay type: cell-based, human; conditions: 50% reduction in T-cell proliferation
Procedure: as §3, §6, §7

IC50 (human TNF-α; Table 4): 7.2 µM
IC50 ([1]; Table 3): 4.1 µM
Compound: COc1ccc(-c2cnc3nc(N)nc(NCc4cccs4)c3n2)cc1OC [Example 116]

IC50 (human TNF-α; Homo sapiens, PBMC, Table 2): 6.7 µM
IC50 ([1]; Homo sapiens, PBMC, Table 1): 10 µM
Compound: Cc1ccc(-c2cnc3nc(N)nc(OC(C)C)c3n2)cc1C [Example 32, 2-amino-6-(3,4-dimethylphenyl)-4-isopropoxypteridine]

IC50 (human TNF-α; Table 4): 7.1 µM
IC50 ([1]; Table 3): 6 µM
Compound: COc1ccc(-c2cnc3nc(N)nc(NCCc4ccccc4)c3n2)cc1OC [Example 114]

IC50 (human TNF-α; Homo sapiens, PBMC, Table 4): 2.1 µM
IC50 ([1]; Homo sapiens, PBMC, Table 3): 4.3 µM
Compound: Nc1nc(N2CCOCC2)c2nc(-c3ccc(O)cc3)cnc2n1 [Example 102, 2-amino-4-morpholino-6-(4-hydroxyphenyl)pteridine]

IC50 (human TNF-α; Table 4): 2.5 µM
IC50 ([1]; Table 3): 1.1 µM
Compound: Nc1ccc(-c2cnc3nc(N)nc(N4CCOCC4)c3n2)cc1 [Example 74, 2-amino-morpholino-6-(4-aminophenyl)pteridine]

IC50 (human TNF-α; Table 4): 0.5 µM
IC50 ([1]; Table 3): 0.4 µM
Compound: COc1ccc(-c2cnc3nc(N)nc(N4CCSCC4)c3n2)cc1OC [Example 118]

IC50 (human TNF-α; Homo sapiens, PBMC, Table 2): 8.5 µM
IC50 ([1]; Homo sapiens, PBMC, Table 1): 8.2 µM
Compound: CCOc1nc(N)nc2ncc(-c3ccc(CC)cc3)nc12 [Example 25, 2-amino-6-(p-ethylphenyl)-4-ethoxy-pteridine]
IC50 ([2]; Homo sapiens): 10 µM
IC50 ([3]; Homo sapiens): 10 µM

The next lines start with the compound.

Compound: CC(C)(C)OC(=O)N[C@@H](Cc1ccccc1)C(=O)Nc1cccc(-c2cnc3nc(N)nc(N4CCOCC4)c3n2)c1 [Example 98, 2-amino-4-morpholino-6-[3-Boc-(L)-phenylalanine-aminophenyl]pteridine]
IC50 (human TNF-α; Table 4): 2.9 µM
IC50 ([1]; Table 3): 3.9 µM

Compound: CCOc1nc(N)nc2ncc(-c3ccc(F)c(F)c3)nc12 [Example 16]
IC50 [2]: 9 µM
IC50 [3]: 4 µM
IC50 ([1]; Table 1): > 10 µM

Compound: CCS(=O)(=O)Nc1cccc(-c2cnc3nc(N)nc(N4CCOCC4)c3n2)c1 [Example 97, 2-amino-4-morpholino-6-(3-ethylsulfonylaminophenyl)pteridine]
IC50 (human TNF-α; Homo sapiens, PBMC, Table 4): > 10 µM
IC50 ([1]; Homo sapiens, PBMC, Table 3): 3.3 µM

Compound: CCOc1ccc(-c2cnc3nc(N)nc(N4CCOCC4)c3n2)cc1 [Example 103, 2-amino-4-morpholino-6-(4-ethoxyphenyl)pteridine]
IC50 (human TNF-α; Homo sapiens, PBMC, Table 4): > 10 µM
IC50 ([1]; Homo sapiens, PBMC, Table 3): 3.7 µM

Compound: CCOc1nc(N)nc2ncc(-c3ccc(C(F)(F)F)cc3)nc12 [Example 18, 2-amino-6-(p-trifluoromethylphenyl)-4-ethoxy-pteridine]
IC50 ([2]; Homo sapiens): 10 µM
IC50 ([3]; Homo sapiens): 0.8 µM
IC50 ([1]; Homo sapiens, PBMC, Table 1): 10 µM

Compound: CC(=O)Nc1ccc(-c2cnc3nc(N)nc(N4CCOCC4)c3n2)cc1 [Example 72, 2-amino-4-morpholino-6-(4-acetanilide)pteridine]
IC50 (human TNF-α; Table 4): 8.4 µM
IC50 ([1]; Table 3): 8.6 µM

Compound: CC[C@@H](C)Nc1nc(N)nc2ncc(-c3ccc(OC)c(OC)c3)nc12 [Example 119]
IC50 (human TNF-α; Table 4): 0.2 µM
IC50 ([1]; Table 3): 0.5 µM

Compound: CC[C@H](C)Nc1nc(N)nc2ncc(-c3ccc(OC)c(OC)c3)nc12 [Example 120]
IC50 (human TNF-α; Table 4): 0.3 µM
IC50 ([1]; Table 3): 0.2 µM

Compound: COc1ccc(-c2cnc3nc(N)nc(N4CCC(C)CC4)c3n2)cc1OC [Example 115]
IC50 (human TNF-α; Table 4): 0.3 µM
IC50 ([1]; Table 3): 0.8 µM

Compound: CCCOc1ccc(-c2cnc3nc(N)nc(N4CCOCC4)c3n2)cc1 [Example 107, 2-amino-4-morpholino-6-(4-propoxy-phenyl)pteridine]
IC50 (human TNF-α; Homo sapiens, PBMC, Table 4): > 10 µM
IC50 ([1]; Homo sapiens, PBMC, Table 3): 6.8 µM

Compound: CCOc1nc(N)nc2ncc(-c3cccc(OC)c3)nc12 [Example 15, 2-amino-6-(m-methoxyphenyl)-4-ethoxy-pteridine]
IC50 ([2]; Homo sapiens): 20 µM
IC50 (human TNF-α; Homo sapiens, PBMC, Table 2): > 10 µM
IC50 ([3]; Homo sapiens): 7 µM
IC50 ([1]; Homo sapiens, PBMC, Table 1): 8.3 µM

Compound: CCOc1nc(N)nc2ncc(-c3ccsc3)nc12 [Example 20, 2-amino-6-(3-thienyl)-4-ethoxy-pteridine]
IC50 ([2]; Homo sapiens): 15 µM
IC50 ([3]; Homo sapiens): 0.7 µM

Compound: COc1ccc(-c2cnc3nc(N)nc(N(CCO)CCO)c3n2)cc1OC [Example 112]
IC50 (human TNF-α; Table 4): 3.4 µM
IC50 ([1]; Table 3): 6 µM
